Data on 47 compounds can be found in the Kinase Knowledgebase extract (Sharma et al. 2016).

For the test, the target named is PIK3CA (human) (UniProt P42336). Put plainly: Assessment of PIK3CA Kinase Activity.
PIK3CA (human), sequence (P42336 whole entry, looked up): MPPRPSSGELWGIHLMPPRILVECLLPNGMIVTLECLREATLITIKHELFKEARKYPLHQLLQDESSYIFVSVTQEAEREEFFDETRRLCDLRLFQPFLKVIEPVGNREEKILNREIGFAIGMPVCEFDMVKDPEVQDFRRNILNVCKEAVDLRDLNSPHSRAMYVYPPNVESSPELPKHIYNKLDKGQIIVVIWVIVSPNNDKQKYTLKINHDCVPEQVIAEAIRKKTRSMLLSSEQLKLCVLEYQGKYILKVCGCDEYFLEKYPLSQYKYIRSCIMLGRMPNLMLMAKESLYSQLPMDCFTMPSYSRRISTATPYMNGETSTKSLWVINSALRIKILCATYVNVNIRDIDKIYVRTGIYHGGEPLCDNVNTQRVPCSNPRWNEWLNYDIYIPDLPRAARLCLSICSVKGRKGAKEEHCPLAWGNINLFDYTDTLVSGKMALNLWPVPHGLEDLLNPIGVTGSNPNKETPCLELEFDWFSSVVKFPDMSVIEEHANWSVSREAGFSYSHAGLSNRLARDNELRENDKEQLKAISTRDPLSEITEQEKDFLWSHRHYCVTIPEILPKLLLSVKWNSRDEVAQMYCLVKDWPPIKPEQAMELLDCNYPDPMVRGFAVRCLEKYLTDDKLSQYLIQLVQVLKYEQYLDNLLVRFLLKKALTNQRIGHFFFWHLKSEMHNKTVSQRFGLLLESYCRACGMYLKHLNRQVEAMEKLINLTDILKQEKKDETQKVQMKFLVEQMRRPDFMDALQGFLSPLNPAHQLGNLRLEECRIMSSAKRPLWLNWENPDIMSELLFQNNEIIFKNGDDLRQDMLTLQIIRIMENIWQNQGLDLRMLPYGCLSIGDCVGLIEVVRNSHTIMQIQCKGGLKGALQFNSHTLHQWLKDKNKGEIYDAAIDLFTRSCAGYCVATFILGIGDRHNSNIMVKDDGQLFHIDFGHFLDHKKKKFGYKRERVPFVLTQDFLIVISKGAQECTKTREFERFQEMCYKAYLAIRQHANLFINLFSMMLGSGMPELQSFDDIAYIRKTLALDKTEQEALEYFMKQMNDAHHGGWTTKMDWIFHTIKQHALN

On to `CN(C)C(=O)c1ccc(NC(=O)Nc2ccc(-c3nc(N4CCOCC4)c4ccc(-c5ccc(CO)o5)cc4n3)cc2)cc1`, for which the IC50 (commonly the concentration that gives 50% inhibition) was less than 50 nM.

Take `CN(C)C(=O)c1ccc(NC(=O)Nc2ccc(-c3nc(N4CCOCC4)c4ncc(-c5cnn(C)c5)cc4n3)c(F)c2)cc1`: the IC50 is less than 50 nM.

In turn, `CN(C)C(=O)c1ccc(NC(=O)Nc2ccc(-c3nc(N4CCOCC4)c4ccc(-c5cncnc5)cc4n3)c(F)c2)cc1` had an IC50 of less than 50 nM.

`CN(C)[C@H]1CCN(C(=O)c2ccc(NC(=O)Nc3ccc(-c4nc(N5CCOCC5)c5ccc(C(C)(C)O)cc5n4)cc3)cc2)C1` had a concentration for half-maximal inhibition (IC50) of 50 to 200 nM.

The compound `CN(C)CCNC(=O)c1ccc2c(N3CCOCC3)nc(-c3ccc(NC(=O)Nc4ccc(C(=O)N(C)C)cc4)cc3)nc2c1` displayed an IC50 of 50 to 200 nM.

`CN1CCN(C(=O)c2ccc(NC(=O)Nc3ccc(-c4nc(N5CCOCC5)c5ccc(-c6ccco6)cc5n4)cc3)cc2)CC1` gave an IC50 of less than 50 nM.

Take `CC(=O)c1ccc(-c2ccc3c(N4CCOCC4)nc(-c4ccc(NC(=O)Nc5ccc(C(=O)N(C)C)cc5)cc4)nc3c2)o1`: the IC50 is less than 50 nM.

For the compound `CN(C)C(=O)c1ccc(NC(=O)Nc2ccc(-c3nc(N4CCOCC4)c4ccc(-c5ccco5)cc4n3)cc2F)cc1`, the IC50 is 50 to 200 nM.

As for `COc1ncc(-c2cnc3c(N4CCOCC4)nc(-c4ccc(NC(=O)Nc5ccc(C(=O)N(C)C)cc5)cc4F)nc3c2)cn1`, the IC50 is less than 50 nM.

`Cc1ccncc1-c1cnc2c(N3CCOCC3)nc(-c3ccc(NC(=O)Nc4ccc(C(=O)N(C)C)cc4)cc3)nc2c1`: the IC50 was less than 50 nM.

With `CN(C)C(=O)c1ccc(NC(=O)Nc2ccc(-c3nc(N4CCOCC4)c4cc(F)c(-c5cccnc5)cc4n3)cc2)cc1`, the IC50 is less than 50 nM.

In turn, `CN(C)[C@@H]1CCN(C(=O)c2ccc(NC(=O)Nc3ccc(-c4nc(N5CCOCC5)c5ccc(C(C)(C)O)cc5n4)cc3)cc2)C1` showed an IC50 of 50 to 200 nM.

The compound `Cc1ccc(-c2cccc3c(N4CCOCC4)nc(-c4ccc(NC(=O)Nc5ccc(C(=O)N(C)C)cc5)cc4)nc23)o1` registered an IC50 of 50 to 200 nM.

As for `CN(C)C(=O)c1ccc(NC(=O)Nc2ccc(-c3nc(N4CCOCC4)c4ncc(-c5ccc(CO)o5)cc4n3)cc2F)cc1`, the IC50 was less than 50 nM.

In turn, `CN(C)C(=O)c1ccc(NC(=O)Nc2ccc(-c3nc(N4CCOCC4)c4ncc(-c5cnn(C)c5)cc4n3)cc2F)cc1` registered an IC50 of less than 50 nM.

As to `CN(C)C(=O)c1ccc(NC(=O)Nc2ccc(-c3nc(N4CCOCC4)c4ccc(-c5cnc(N(C)C)nc5)cc4n3)c(F)c2)cc1`, the IC50 is less than 50 nM.

The compound `CN(C)C(=O)c1ccc(NC(=O)Nc2ccc(-c3nc(N4CCOCC4)c4cc(F)c(-c5cncnc5)cc4n3)cc2)cc1` showed an IC50 of less than 50 nM.

In turn, `CN(C)C(=O)c1ccc(NC(=O)Nc2ccc(-c3nc(N4CCOCC4)c4ccc(-c5cccs5)cc4n3)cc2)cc1` showed an IC50 of less than 50 nM.

`CN(C)C(=O)c1ccc(NC(=O)Nc2ccc(-c3nc(N4CCOCC4)c4ccc(-c5ccccn5)cc4n3)cc2)cc1` displayed an IC50 of less than 50 nM.

In turn, `Cn1cc(-c2cnc3c(N4CCOCC4)nc(-c4ccc(NC(=O)Nc5ccc(C(N)=O)cc5)cc4)nc3c2)cn1` showed an IC50 of less than 50 nM.

`CN(C)CCn1cc(-c2ccc3c(N4CCOCC4)nc(-c4ccc(NC(=O)Nc5ccc(C(=O)N(C)C)cc5)cc4)nc3c2)cn1` had a 50% inhibitory concentration (IC50) of 50 to 200 nM.

`CN(C)C(=O)c1ccc(NC(=O)Nc2ccc(-c3nc(N4CCOCC4)c4ncc(-c5cccnc5F)cc4n3)cc2)cc1` registered an IC50 of less than 50 nM.

With `Cc1noc(C)c1-c1ccc2c(N3CCOCC3)nc(-c3ccc(NC(=O)Nc4ccc(C(=O)N5CC[C@H](N(C)C)C5)cc4)c(F)c3)nc2c1`, the IC50 is 50 to 200 nM.

For `CN(C)C(=O)c1ccc(NC(=O)Nc2ccc(-c3nc(N4CCOCC4)c4ccc(-c5cccc(O)c5)cc4n3)cc2)cc1`, the IC50 was less than 50 nM.

Compound `CN1CCN(C(=O)c2ccc(NC(=O)Nc3ccc(-c4nc(N5CCOCC5)c5ccc(-c6cnn(C)c6)cc5n4)cc3)cc2)CC1` showed an IC50 of 50 to 200 nM.

`Cc1ccncc1-c1ccc2c(N3CCOCC3)nc(-c3ccc(NC(=O)Nc4ccc(C(=O)N(C)C)cc4)cc3)nc2c1` had a half-inhibitory concentration (IC50) of less than 50 nM.

`CN(C)C(=O)c1ccc(NC(=O)Nc2ccc(-c3nc(N4CCOCC4)c4ccc(-c5ccc(CO)o5)cc4n3)c(F)c2)cc1` gave an IC50 of less than 50 nM.

With `COc1ccncc1-c1ccc2c(N3CCOCC3)nc(-c3ccc(NC(=O)Nc4ccc(C(=O)N(C)C)cc4)cc3)nc2c1`, the IC50 is less than 50 nM.

As for `CN(C)C(=O)c1ccc(NC(=O)Nc2ccc(-c3nc(N4CCOCC4)c4cc(F)c(-c5cccnc5F)cc4n3)cn2)cc1`, the IC50 is less than 50 nM.

In the case of `CN1CCN(C(=O)c2ccc(NC(=O)Nc3ccc(-c4nc(N5CCOCC5)c5ccc(-c6ccncc6)cc5n4)cc3F)cc2)CC1`, the IC50 was in the range of 50 to 200 nM.

As to `Cc1ccc(-c2ccc3c(N4CCOCC4)nc(-c4ccc(NC(=O)Nc5ccc(C(=O)N6CC[C@H](N(C)C)C6)cc5)cc4)nc3c2)o1`, the IC50 was in the range of 50 to 200 nM.

The compound `CN(C)[C@@H]1CCN(C(=O)c2ccc(NC(=O)Nc3ccc(-c4nc(N5CCOCC5)c5cc(F)c(-c6cccnc6)cc5n4)cc3)cc2)C1` came in with an IC50 of less than 50 nM.

As for `Cc1ccc(-c2ccc3c(N4CCOCC4)nc(-c4ccc(NC(=O)Nc5ccc(C(=O)N(C)C)cc5)nc4)nc3c2)o1`, the IC50 is less than 50 nM.

`CN(C)C(=O)c1ccc(NC(=O)Nc2ccc(-c3nc(N4CCOCC4)c4ccc(-c5ccco5)cc4n3)cc2)c(F)c1` gave an IC50 of less than 50 nM.

`CN(C)C(=O)c1ccc(NC(=O)Nc2ccc(-c3nc(N4CCOCC4)c4ccc(-c5ccccn5)cc4n3)c(F)c2)cc1` had an IC50 of less than 50 nM.

`CN(C)C(=O)c1ccc(NC(=O)Nc2ccc(-c3nc(N4CCOCC4)c4cccc(-c5cccnc5F)c4n3)cc2)cc1` yielded an IC50 of 50 to 200 nM.

`CN(C)C(=O)c1ccc(NC(=O)Nc2cc(F)c(-c3nc(N4CCOCC4)c4ccc(-c5cncnc5)cc4n3)cc2F)cc1` showed an IC50 of 50 to 200 nM.

The compound `COc1cc2nc(-c3ccc(NC(=O)Nc4ccc(C(=O)N(C)C)cc4)cc3)nc(N3CCOCC3)c2cc1OC` returned an IC50 of 50 to 200 nM.

Turning to `CN(C)C(=O)c1ccc(NC(=O)Nc2ccc(-c3nc(N4CCOCC4)c4ncc(-c5cncnc5)cc4n3)cc2F)cc1`, the IC50 was less than 50 nM.

`CN(C)C(=O)c1ccc(NC(=O)Nc2ccc(-c3nc(N4CCOCC4)c4ccc(-c5ccco5)cc4n3)c(F)c2F)cc1` came in with an IC50 of 50 to 200 nM.

`CN(C)CCN(C)C(=O)c1ccc(NC(=O)Nc2ccc(-c3nc(N4CCOCC4)c4ccc(-c5ccncc5)cc4n3)cc2)cc1` showed an IC50 of less than 50 nM.

In turn, `CN(C)C(=O)c1ccc(NC(=O)Nc2ccc(-c3nc(N4CCOCC4)c4ccc(-c5cncnc5)cc4n3)cc2F)cn1` had an IC50 of 50 to 200 nM.

Compound `CN(C)C(=O)c1ccc(NC(=O)Nc2ccc(-c3nc(N4CCOCC4)c4ccc(-c5cccnc5F)cc4n3)cc2)cn1` showed an IC50 of 50 to 200 nM.

`CN(C)C(=O)c1ccc(NC(=O)Nc2ccc(-c3nc(N4CCOCC4)c4ncc(-c5cncnc5)cc4n3)cc2)cc1F`: the half-inhibitory concentration (IC50) is less than 50 nM.

`CN(C)C(=O)c1ccc(NC(=O)Nc2ccc(-c3nc(N4CCOCC4)c4cc(F)c(-c5cncc(S(C)(=O)=O)c5)cc4n3)cc2)cc1` yielded an IC50 of less than 50 nM.

As for `Cc1ccc(-c2ccc3c(N4CCOCC4)nc(-c4ccc(NC(=O)Nc5ccc(C(=O)N6CCC(O)C6)cc5)cc4)nc3c2)o1` (configuration not stated), the IC50 is less than 50 nM.

For the compound `Cc1ccc(-c2ccc3c(N4CCOCC4)nc(-c4ccc(NC(=O)Nc5ccc(C(=O)N(C)C)cc5)cc4F)nc3c2)o1`, the IC50 fell in the range of 50 to 200 nM.
